Assay results taken from patent US20240173353A1, “UNIVERSAL CHIMERIC ANTIGEN RECEPTOR T-CELL AND APPLICATION THEREOF” (SHANGHAI IASO BIOTECHNOLOGY CO., LTD., priority 2021, published 2024).

Experiments:
CD19-UCART cells = test: CD107a release of CD19-UCART co-incubated with Raji, dynamic ponatinib concentration; type: cell-based, human
Procedure: In this example, the inventors used the prepared CD19-UCART and Km-edited CD19-UCART cells in the experiments. […] The next day, the concentration was adjusted to 0, 50, 100 and 200 nM in the group of 200 nM pretreatment overnight, and the concentration was adjusted to 0, 100, 200 nM and 300 nM in the group of 500 nM pretreatment overnight. […] Two technical replicates were set for each group. After 4 hr of co-incubation, CD107a release in CD8 and CAR double-positive cells was detected.

NK cells = test: CD107a release of NK cells activated by K562; type: cell-based, human
Procedure: The inventor used Miltenyi human NK sorting magnetic beads to separate NK cells from human peripheral blood, and used DAKEWE NK medium to culture and expand them in vitro. On Day 8, a population of NK cells with more than 95% having positive CD56 expression could be obtained. These NK cells were taken out and treated with 0 nM, 100 nM and 200 nM dasatinib respectively for 24 hr, and then divided into two groups, one of which was not activated, and the other group was stimulated with MHC-class I molecule-deficient K562 cells for 5 hr. Then, the CD107a release of NK cells were detected in both of them.
The inventors isolated NK cells from human PBMCs, and then cultured and differentiated them in NK medium to obtain CD56-positive NK cells with a purity higher than 95%. The exploration of the threshold of NK activation with dasatinib was carried out with seven concentrations in the range of 0-50 nM, namely 0, 10, 20, 25, 30, 40 and 50 nM, and the treatment was carried out overnight. The next day, the cells were resuspended with NK medium and activated with K562. Lymphocyte activator was used as a positive control for activation, and a part of NK cells that were not activated by K562 were also kept. Two replicates were set for each group. anti-CD107a antibody and monensin were added while carrying out activation, and after co-incubation for 6 hr, the CD107a release of CD56-positive NK cells was detected by flow cytometry.
The inventors isolated NK cells from human PBMCs, and then cultured and differentiated them in NK medium to obtain CD56-positive NK cells with a purity higher than 95%. Three pretreatments were done respectively (1) absence of dasatinib pretreatment; (2) pretreatment with […] pretreatment with 50 nM dasatinib, and the cells were cultured overnight. The next day, the concentration of dasatinib was reduced, and the concentration was adjusted to 0, 7.5, 12.5, 17.5 and 25 nM respectively. […] Two replicates were set for each group.
In order to repeatedly verify that the inhibition of NK cell activation function by dasatinib has an extended effect, the inventors repeated the above experiment. […] After 4 hr of co-incubation, CD107a release from CD56 positive NK cells was detected.
The inventors used CD3-negative cells in human PBMCs, which contained more than 5% of CD56-positive NK cells. […] The next day, the cells were resuspended with NK medium and activated with K562. Lymphocyte activator was used as a positive control for activation, and a part of NK cells that were not activated by K562 were also kept. Two replicates were set for each group. anti-CD107a antibody and monensin were added while carrying out activation, and after co-incubation for 6 hr, the CD107a release of CD56-positive NK cells was detected by flow cytometry.
The inventors isolated NK cells from human PBMCs, and then cultured and differentiated them in NK medium to obtain CD56-positive NK cells with a purity higher than 95%. […] Two replicates were set for each group.

T cells = test: T cell activation by anti-CD3/CD28 DynaBeads, CD25/CD69/4-1BB expression by flow cytometry
Source text: The inventors pre-treated T cells with dasatinib or DMSO for 5 hr, then activated T cells with anti-CD3/CD28 DynaBeads for 24 hr, and then detected the expression of activation molecules CD25, CD69 and 4-1BB by flow cytometry.
In order to verify the tolerance of the LCK-T316I mutation to the function of dasatinib, the inventors carried out experimental verification on the T cells with LCK edited with different sgRNA lengths prepared in Example 2.
The inventors isolated CD3-positive T cells from human peripheral blood and divided them into eleven portions for processing, with 1e5 cells in each portion. One of these portions was not treated with dasatinib, anti-CD3/CD28 DynaBeads were not added to activate TCR, and this portion was as the initial control group; the other 10 portions of cells were pretreated with different concentrations of dasatinib for 4 hr, ten concentrations ranging from 0 nM to 50 nM were set, and then anti-CD3/CD28 DynaBeads were added to activate TCR signals overnight. On the second day, the expression of CD25, CD69 and 4-1BB activation signals was detected, and the activation of TCR signals was detected. Two replicates were set for each group of experiments.
The inventors divided each of the three groups of edited cells into 6 sub-groups and cultured them in a flat-bottomed 96-well plate. Each sub-group contained two technical replicates, and each well contained 0.15×10^6 cells. […] Subsequently, the cells were cultured for 18 hr. The activated T cell surface marker molecule 4-1BB was detected by using the APC-labeled murine IgG monoclonal antibody, and the activated T cell surface marker molecule CD25 was detected by using the PE-labeled murine IgG monoclonal antibody, and the activated T cell surface marker CD69 was detected by FITC-labeled murine IgG monoclonal antibody.
The inventors conducted research using two groups of T cells (CBE3 control group and Km edited group) in the above experiments. The experimental procedure is basically the same as the above-mentioned experiment (FIG. 32B). The two groups of edited cells were each divided into 7 sub-groups and cultured them in a flat-bottomed 96-well plate. Each sub-group contained two technical replicates, and each well contained 0.15×10^6 cells. […] Subsequently, the cells were cultured for 18 hr. The activated T cell surface marker molecule 4-1BB was detected by using the APC-labeled murine IgG monoclonal antibody, and the activated T cell surface marker molecule CD25 was detected by using the PE-labeled murine IgG monoclonal antibody, and the activated T cell surface marker CD69 was detected by FITC-labeled murine IgG monoclonal antibody.

anti-BCMA-CAR-T cells = test: CD107a translocation of anti-BCMA-CAR-T cells co-incubated with target cells; type: cell-based, human; details: wild-type anti-BCMA CAR-T, adjusted to 0 nM
[1] = CBE3 control group, 200 nM ponatinib
[2] = Km edited group, 500 nM ponatinib
[3] = Km group (30% T316I), 200 nM ponatinib
[4] = Sg12 control group, 200 nM ponatinib
[5] = second experiment, Km group, 200 nM ponatinib

Question: Cc1ccc(C(=O)Nc2ccc(CN3CCN(C)CC3)c(C(F)(F)F)c2)cc1C#Cc1cnc2cccnn12 [ponatinib] was tested. Which “concentration that shuts down activation of CD19-UCART with LCK-T316I mutation” value (CD19-UCART cells) did it give?
Answer: 500 nM

Question: And the “percentage of CD107a-positive cells” value (CD19-UCART cells; CD19-UCART group, 200 nM pretreatment overnight, adjusted to 0 nM, Raji 4 hr)?
Answer: 17.2%

Question: And the “percentage of CD107a-positive cells” value (CD19-UCART cells; CD19-UCART group, 200 nM pretreatment, 50 nM)?
Answer: 0.485%

Question: And the “percentage of CD107a-positive cells” value (CD19-UCART cells; CD19-UCART group, 200 nM pretreatment, 200 nM, Raji 4 hr)?
Answer: 0.735%

Question: And the “percentage of CD107a-positive cells” value (CD19-UCART cells; CD19-UCART group, 500 nM pretreatment, 300 nM)?
Answer: 0.495%

Question: And the “percentage of CD107a-positive cells” value (CD19-UCART cells; CD19-UCART group, 500 nM pretreatment, adjusted to 0 nM)?
Answer: 1.73%

Question: And the “percentage of CD107a-positive cells” value (CD19-UCART cells; Km-edited CD19-UCART group, 200 nM pretreatment, 200 nM)?
Answer: 5.12%

Question: What about the “percentage of CD107a-positive cells” value (CD19-UCART cells; Km-edited CD19-UCART group, 200 nM pretreatment, adjusted to 0 nM) of the same molecule?
Answer: 16.6%

Question: What about the “percentage of CD107a-positive cells” value (CD19-UCART cells; Km-edited CD19-UCART group, 500 nM pretreatment, 300 nM) of the same molecule?
Answer: 1.47%

Question: What about the “percentage of CD107a-positive cells” value (CD19-UCART cells; Km-edited CD19-UCART group, 500 nM pretreatment, adjusted to 0 nM) of the same molecule?
Answer: 11.15%

Question: What about the “release of CD107a” value (NK cells; NK cells, highest ponatinib pretreatment (200 nM), lowered to 0 nM, K562) of the same molecule?
Answer: above 38%

Question: What about the “concentration that effectively inhibits NK cell activation in vitro” value (NK cells; ponatinib) of the same molecule?
Answer: 200 nM

Question: And the “number of cells (survival of T cells)” value (T cells; 1000 nM ponatinib)?
Answer: significantly reduced

Question: What about the “CD25 and 4-1BB double-positive cells” value (T cells; [1]) of the same molecule?
Answer: 1.00%

Question: What about the “CD25 and CD69 double-positive cells” value (T cells; [1]) of the same molecule?
Answer: 5.59%

Question: And the “CD25 and 4-1BB double-positive cells” value (T cells; [2])?
Answer: 2.42%

Question: And the “CD25 and CD69 double-positive cells” value (T cells; [2])?
Answer: 6.75%

Question: And the “CD25 and 4-1BB double-positive cells” value (T cells; [3])?
Answer: 24.1%

Question: And the “CD25 and CD69 double-positive cells” value (T cells; [3])?
Answer: 17.7%

Question: What about the “CD25 and 4-1BB double-positive cells” value (T cells; [4]) of the same molecule?
Answer: 1.85%

Question: And the “CD25 and CD69 double-positive cells” value (T cells; [4])?
Answer: 5.31%

Question: What about the “concentration that effectively inhibits activation of T cells” value (T cells; in vitro) of the same molecule?
Answer: 200 nM

Question: And the “cells expressing CD25 and 4-1BB” value (T cells; [5])?
Answer: 19.71%

Question: What about the “cells expressing CD25 and CD69” value (T cells; [5]) of the same molecule?
Answer: 23.9%

Question: And the “percentage of CD107a positive cells” value (anti-BCMA-CAR-T cells; 200 nM ponatinib pretreatment, RPMI-8226 4 hr)?
Answer: about 16%

Question: And the “percentage of CD107a positive cells” value (anti-BCMA-CAR-T cells; 500 nM pretreatment)?
Answer: about 3%
